From patent US6664242B2 (priority 2000, dated 2003)
Like-named read-outs stand apart in the source and are kept apart here.

Assays:
[1] = system: human colon carcinoma strain HCT-116; details: for Comments / Log10 cell Kill / T-C (Tumor Growth Delay): days 5-9, 12-16; for activity at the maximum tolerated dose: maximum tolerated doses, p.o., HCT-116 in Swiss-nude mice
Experimental: (§1) This efficacy may be quantified, for example by the log10 cells killed, which is determined by the following formula:
(§2) log10 cell killed=T-C(days)/3.32×Td
(§3) A product is considered to be active if the log10 cell kill is greater than or equal to 0.7. A product is considered to be very active is the log10 cell kill is greater than 2.8.

[2] = system: early stage HCT-116 colon carcinoma
Experimental: as §1, §2, §3
Three dosage levels of capecitabine were given alone on days 18-22 and 25-29. In the combination arm, two semi-simultaneous schedules were investigated.

[3] = system: metastatic colorectal cancer; details: oral capecitabine, first-line, phase III; cited from earlier work
[4] = capecitabine 443 mg/kg/adm p.o.
[5] = capecitabine 713 mg/kg/adm p.o.
[6] = capecitabine 443 mg/kg/adm p.o., days 18-22 & 25-29
[7] = capecitabine 713 mg/kg/adm p.o., days 18-22 & 25-29
[8] = capecitabine 1150 mg/kg/adm p.o., days 18-22 & 25-29
[9] = CPT-11 60 mg/kg/adm p.o., days 18-22
[10] = CPT-11 96 mg/kg/adm p.o., days 18-22

Compound: CCCCCOC(=O)Nc1nc(=O)n([C@@H]2O[C@H](C)[C@@H](O)[C@H]2O)cc1F [capecitabine, 5′-deoxy-5-fluoro-N-[(pentyloxy)-carbonyl]-cytidine]
- Comments [1, 4]: Active
- Log10 cell Kill [1, 4]: 1.1
- T-C (Tumor Growth Delay) [1, 4]: 16.3 days
- Comments [1, 5]: Active
- Log10 cell Kill [1, 5]: 2.6
- T-C (Tumor Growth Delay) [1, 5]: 38.7 days
- activity at the maximum tolerated dose [1]: highly active
- Comments [2, 6]: Active
- Log10 cell Kill [2, 6]: 2.1
- T-C (Tumor Growth Delay) [2, 6]: 26.1 days
- Comments [2, 7]: Active
- Log10 cell Kill [2, 7]: 2.1
- T-C (Tumor Growth Delay) [2, 7]: 25.2 days
- Log10 cell Kill [2, 8]: 3.2
- T-C (Tumor Growth Delay) [2, 8]: 39.4 days
- efficacy compared with i.v. 5-FU/leucovorin (Mayo Clinic regimen) [3]: superior response rate and at least equivalent survival and time to disease progression
- safety profile compared with the Mayo Clinic regimen [3]: more favourable safety profile

Compound: irinotecan [CPT-11]
- Comments ([1]; CPT-11 29 mg/kg/adm p.o.): Active
- Log10 cell Kill ([1]; CPT-11 29 mg/kg/adm p.o.): 2.1
- T-C (Tumor Growth Delay) ([1]; CPT-11 29 mg/kg/adm p.o.): 30.1 days
- Comments ([1]; CPT-11 48 mg/kg/adm p.o.): HNTD
- Comments ([1]; CPT-11 80 mg/kg/adm p.o.): Toxic
- activity at the maximum tolerated dose [1]: highly active
- Comments [2, 9]: Active
- Log10 cell Kill [2, 9]: 1.7
- T-C (Tumor Growth Delay) [2, 9]: 21.4 days
- Comments [2, 10]: HNTD
- Log10 cell Kill [2, 10]: 1.7
- T-C (Tumor Growth Delay) [2, 10]: 21.3 days
- Comments ([2]; CPT-11 155 mg/kg/adm p.o., days 18-22): Toxic
